Where two headings read alike, the source gives them in different places.

What is called EC50 is the concentration needed to bring the measured effect to its halfway point.

Common to all, as to type: cell-based, HIV-1
In one assay the test system is WT HXB2D. The assay can be described thus: Cytopathic antiviral assay in MT-2 cells, wild type HXB2D. Conditions: Human immunodeficiency virus 1, MT2, read-out: WT HXB2D EC50, MT-2 cells, mean ± s.d. of three experiments in triplicate. As to the method:
(§1) The antiviral activity of the compound of Formula (a) was tested against a panel of known HIV-1 mutants resistant to HIV PIs (ATV and DRV), NRTIs (TFV and FTC), NNRTIs (RPV and EFV) or INSTIs (RAL, EVG and DTG) using a cytopathic antiviral assay in MT-2 cells. The compound of Formula (Ia) was fully active against all tested mutants resistant to PIs (Table 11), NRTIs (Table 12), NNRTIs (Table 13) or INSTIs (Table 14).
(Cytopathic effects are the visible damage that an infection or toxin causes in cultured cells.)

For a further assay, the system named is PI-resistant viruses. Nature of the assay: Cytopathic antiviral assay in MT-2 cells, PI-resistant viruses. As to conditions: Mutant/WT (HXB2D) EC50 ratio, mean ± s.d. of three experiments. On the procedure:
as §1

Another assay has as its system NNRTI-resistant viruses. The assay can be described thus: Cytopathic antiviral assay in MT-2 cells, NNRTI-resistant viruses. As to conditions: Mutant/WT (HXB2D) EC50 ratio, mean ± s.d. of three experiments. As to the method: as §1
The next assay concerns NRTI-resistant viruses. As to conditions: Mutant/WT (LAI) EC50 ratio, MT-2 cells, mean ± s.d. of three experiments. As to the method:
(§2) The antiviral activity of the compound of Formula (a) was tested against a panel of known HIV-1 mutants resistant to HIV PIs (ATV and DRV), NRTIs (TFV and FTC), NNRTIs (RPV and EFV) or INSTIs (RAL, EVG and DTG) using a cytopathic antiviral assay in MT-2 cells.

The test system of another assay is WT LAI. The assay can be described thus: microbe, parasite or virus in culture. As to conditions: Human immunodeficiency virus 1, MT2, read-out: WT LAI EC50. As to the method:
as §2

Another assay deals with INSTI-resistant viruses. Nature of the assay: Cytopathic antiviral assay in MT-2 cells, INSTI-resistant viruses. Conditions: Mutant/WT (HXB2D) EC50 ratio, mean ± s.d. of three experiments. On the procedure: as §1

For the compound `COC(=O)N[C@H](C(=O)N[C@@H](Cc1ccccc1)[C@@H](O)CN(Cc1ccc(-c2ccccn2)cc1)NC(=O)[C@@H](NC(=O)OC)C(C)(C)C)C(C)(C)C` [ATV, atazanavir], the EC50 in the assay on WT HXB2D (INSTI-resistance panel (Table 14)) turned out to be 3.7 ± 1.07 nM; with WT HXB2D (NNRTI-resistance panel (Table 13)) it was 4.6 ± 1.48 nM; in the assay with WT HXB2D (PI-resistance panel (Table 11)) it was 4.18 ± 0.46 nM; with WT LAI, 4.78 ± 1.26 nM. Also, the “EC50 Fold-Change” value with PI-resistant viruses (G48V/V82A/L90M) amounted to 32.5 ± 11.9; in the assay on PI-resistant viruses (G48V/V82S), 15.4 ± 3.1; in the assay on PI-resistant viruses (I50V), 3.5 ± 0.4; in the assay on PI-resistant viruses (I84V/L90M) it was 33.1 ± 7.8; in the assay on NNRTI-resistant viruses (K103N), 0.6 ± 0.3; with NNRTI-resistant viruses (K103N/Y181C) it was 0.6 ± 0.3. In addition, the “EC50 Fold-Change” value worked out at 0.6 ± 0.3 with NNRTI-resistant viruses (L100I/K103N); 1.8 ± 1.0 in the assay on NNRTI-resistant viruses (Y181C); 0.6 ± 0.3 with NNRTI-resistant viruses (Y188L); 0.5 ± 0.2 in the assay on NRTI-resistant viruses (6TAMs); 0.9 ± 0.3 in the assay with NRTI-resistant viruses (K65R); 0.6 ± 0.2 with NRTI-resistant viruses (M184V). Moreover, the “EC50 Fold-Change” value with INSTI-resistant viruses (E92Q/N155H) was 1.0 ± 0.4; with INSTI-resistant viruses (E138K/Q148K), 0.8 ± 0.3; with INSTI-resistant viruses (G140S/Q148R), 1.1 ± 0.5; in the assay on INSTI-resistant viruses (N155H/Q148R), 0.9 ± 0.4; in the assay with INSTI-resistant viruses (R263K/M50I), 1.1 ± 0.6; in the assay with INSTI-resistant viruses (Y143R), 0.8 ± 0.2.

The values above are taken from patent publication US12594267B2, “Capsid inhibitors for the treatment of HIV” (Gilead Sciences, Inc., priority 2018, dated 2026).
